We go through 24 compounds from patent US10987322B2, “Immunoregulatory agents” (FLEXUS BIOSCIENCES, INC., priority 2014, dated 2021).

Chain of IDO (P14902 whole entry): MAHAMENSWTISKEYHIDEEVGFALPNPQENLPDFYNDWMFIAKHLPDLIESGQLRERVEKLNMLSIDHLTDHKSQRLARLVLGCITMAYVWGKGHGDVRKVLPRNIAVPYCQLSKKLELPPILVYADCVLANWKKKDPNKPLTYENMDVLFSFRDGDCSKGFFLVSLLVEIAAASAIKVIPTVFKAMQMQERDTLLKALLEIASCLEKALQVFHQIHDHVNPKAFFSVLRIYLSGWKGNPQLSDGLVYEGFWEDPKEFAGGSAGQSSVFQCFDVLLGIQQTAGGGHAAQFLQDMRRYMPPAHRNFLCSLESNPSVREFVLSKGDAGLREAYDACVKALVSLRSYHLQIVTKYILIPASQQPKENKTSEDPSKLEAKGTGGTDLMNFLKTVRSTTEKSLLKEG

The target in the assay is IDO (Homo sapiens, UniProt P14902). The assay can be described thus: IDO enzyme activity assay. Conditions: read-out: Potency: IDO IC50. Type of assay: biochemical. On the procedure:
An IDO enzyme assay and cellular production of kynurenine (KYN) is described in Sarkar, S. A. et al., Diabetes 56:72-79 (2007). Briefly, all chemicals can be purchased from Sigma-Aldrich (St. Louis, Mo.) unless specified otherwise. Groups of 1,000 human islets can be cultured for 24 h in 1 mL medium with cytokines, recovered by centrifugation for 5 min at 800×g and sonicated in 150 μL PBS containing a protease inhibitor cocktail (Set 2; Calbiochem, EMD Biosciences, San Diego, Calif.). The sonicate can be centrifuged for 10 min at 10,000×g, and the supernatant can be assayed in triplicate by incubating a 40 μl sample with an equal volume of 100 mmol/L potassium phosphate buffer, pH 6.5, containing 40 mmol/L ascorbic acid (neutralized to pH 7.0), 100 μmol/L methylene blue, 200 μg/mL catalase, and 400 μmol/l L-Trp for 30 min at 37° C. The assay can be terminated by the addition of 16 μL 30% (w/v) trichloroacetic acid (TCA) and further incubated at 60° C. for 15 min to hydrolyze N-formylkynurenine to KYN. The mixture can then be centrifuged at 12,000 rpm for 15 min, and KYN can be quantified by mixing equal volume of supernatant with 2% (w/v) Ehrlich's reagent in glacial acetic acid in 96-well microtiter plate and reading the absorbance at 480 nm using L-KYN as standard. Protein in the islet samples can be quantified by Bio-Rad Protein assay at 595 nm. For the detection of L-KYN in the islet culture supernatants, proteins can be precipitated with 5% (w/v) TCA and centrifuged at 12,000 rpm for 15 min, and determination of KYN in the supernatant with Ehrlich's reagent can be determined as described above. IL-4 ([…]; 500-2,000 units/mL) and 1-α-methyl Trp (1-MT; 40 μmol/L) can be added to the incubation media as indicated. This assay can also form the basis of a cell-based assay, and may be quantified via LCMS/MS as an alternative to UV/Vis detection.
cDNA clones for both human and mouse IDO have been isolated and verified by sequencing and are commercially available. In order to prepare IDO for biochemical studies, C-terminal His-tagged IDO protein can be produced in E. coli using the IPTG-inducible pET5a vector system and isolated over a nickel column. The yield of the partially purified protein can be verified by gel electrophoresis and the concentration estimated by comparison to protein standards. To assay IDO enzymatic activity, a 96-well plate spectraphotometric assay for kynurenine production can be run following published procedures (see, e.g., Littlejohn, T. K., et al. (2000) Prot. Exp. Purif. 19:22-29). To screen for IDO inhibitory activity, compounds can be evaluated at a single concentration of, for example, 200 μM against 50 ng of IDO enzyme in 100 μL reaction volumes with tryptophan added at increasing concentrations at, for example, 0, 2, 20, and 200 μM. Kynurenine production can be measured at 1 hour.
Consider `O/N=C(/CC(O)C1CCCCC1)Nc1cccc(Cl)c1` (stereo not drawn), for which the IC50 was < 10 µM.
Turning to `O/N=C(/CC(O)C1CCCCC1)Nc1ccc(F)c(F)c1` (stereo not drawn), the IC50 was < 100 µM.
For the compound `O/N=C(/CC(O)C1CCCCC1)Nc1ccc(Cl)c(F)c1` (stereo not drawn), the IC50 is < 100 µM.
In the case of `O/N=C(/CC(O)C1CCCCC1)Nc1cccc(F)c1` (stereo not drawn) it was < 100 µM; in that of `O/N=C(/CC(O)C1CCCCC1)Nc1cc(Cl)cc(Cl)c1` (stereo not drawn), < 10 µM.
For `CC/C(=N/O)Nc1cccc(Cl)c1`, the IC50 was < 10 µM.
As to `O/N=C(/CCC1CCCCC1)Nc1cccc(Cl)c1`, the IC50 is < 1 µM.
Under `O/N=C(/CC(O)C1CCCCC1)Nc1cccc(C(F)(F)F)c1` (stereo not drawn) stands < 100 µM; under `O/N=C(/CC(O)C1CCCCC1)Nc1cc(F)cc(Cl)c1` (stereo not drawn), < 100 µM.
Turning to `O/N=C(\Nc1cccc(Cl)c1)C1CCCC1`, the IC50 was < 10 µM.
In the case of `O/N=C(/CC1CCCCC1)Nc1cccc(Cl)c1` it was < 1 µM.
Turning to `O/N=C(/CC1CCCC1)Nc1cccc(Cl)c1`, the IC50 is < 1 µM.
Take `O/N=C(/CCC1CCCC1)Nc1cccc(Cl)c1`: the IC50 is < 1 µM.
On to `CCC/C(=N/O)Nc1cccc(Cl)c1`, for which the IC50 is < 1 µM.
Under `CCCC/C(=N/O)Nc1cccc(Cl)c1` stands < 1 µM; under `CC(C)C/C(=N/O)Nc1cccc(Cl)c1`, < 1 µM; under `CCCCC/C(=N/O)Nc1cccc(Cl)c1`, < 1 µM.
As for `O/N=C(/CC1CCCO1)Nc1cccc(Cl)c1` (stereo not drawn), the IC50 was < 10 µM.
Under `CC(C)CC/C(=N/O)Nc1cccc(Cl)c1` stands < 1 µM; under `OCCCC/C(=N/O)Nc1cccc(Cl)c1`, < 10 µM.
Take `O/N=C(/CC1CCCC1O)Nc1cccc(Cl)c1` (stereo not drawn): the IC50 is < 10 µM.
In the case of `CC(C)(C)C/C(=N/O)Nc1cccc(Cl)c1` it was < 100 µM; in that of `CCCCCC/C(=N/O)Nc1cccc(Cl)c1`, < 1 µM.
As to `O/N=C(/CC1CC1)Nc1cccc(Cl)c1`, the IC50 is < 1 µM.

What is called IC50 is the point on the concentration scale where inhibition reaches its midpoint.
